Laboratory results as given in patent publication US7993917B2, “Method for obtaining a cellular product from a cell or a tissue using protein-free medium” (The United States of America as represented by the …, priority 1999, dated 2011).
Like-named read-outs stand apart in the source and are kept apart here.

Tested on: P. falciparum isolates
Test: 48 hour parasite lactate dehydrogenase (48 hr pLDH) drug sensitivity assay after transport from the field on ice in BAM
Type: cell-based
Details: Plasmodium falciparum
Experimental: Malaria parasites fail to thrive after removal from the patient. They can be preserved either by cryopreservation in liquid nitrogen or storage at −70° C. These techniques used for long term storage are too labor-intensive and expensive for routine use. […] Transit time can vary between a few hours to less than a week. Because of the clinical demand for such a service, BAM was evaluated in the field as a transport medium for malaria parasites.

[1] = 24 h, isolate 1107, 1 day in transit, read-out: IC50
[2] = 24 h, isolate 1236, 1 day in transit, read-out: IC50
[3] = 24 h, isolate A116, 1 day in transit, read-out: IC50
[4] = 24 h, isolate A246, 1 day in transit, read-out: IC50
[5] = 24 h, isolate A296, 1 day in transit, read-out: IC50
[6] = 24 h, isolate B236, 1 day in transit, read-out: IC50
[7] = 24 h, isolate C67, 1 day in transit, read-out: IC50
[8] = 24 h, isolate C107, 1 day in transit, read-out: IC50
[9] = 24 h, isolate C166, 1 day in transit, read-out: IC50
[10] = 24 h, isolate D86, 1 day in transit, read-out: IC50
[11] = 24 h, isolate D107, 1 day in transit, read-out: IC50
[12] = 24 h, isolate D296, 1 day in transit, read-out: IC50
[13] = 24 h, isolate E107, 1 day in transit, read-out: IC50
[14] = 24 h, isolate F166, 1 day in transit, read-out: IC50
[15] = 24 h, isolate F296, 1 day in transit, read-out: IC50
[16] = 24 h, isolate G17, 1 day in transit, read-out: IC50
[17] = 24 h, isolate G236, 1 day in transit, read-out: IC50
[18] = 24 h, isolate H107, 1 day in transit, read-out: IC50
[19] = 24 h, isolate J107, 1 day in transit, read-out: IC50
[20] = 24 h, isolate K107, 1 day in transit, read-out: IC50
[21] = 24 h, isolate KilH, 1 day in transit, read-out: IC50
[22] = 24 h, isolate KilS, 1 day in transit, read-out: IC50
[23] = 24 h, isolate L107, 1 day in transit, read-out: IC50
[24] = 24 h, isolate L137, 1 day in transit, read-out: IC50
[25] = 48 h, isolate B116, 2 days in transit, read-out: IC50
[26] = 48 h, isolate B296, 2 days in transit, read-out: IC50
[27] = 48 h, isolate C108, 2 days in transit, read-out: IC50
[28] = 48 h, isolate G296, 2 days in transit, read-out: IC50
[29] = 48 h, isolate H236, 2 days in transit, read-out: IC50
[30] = 48 h, isolate R107, 2 days in transit, read-out: IC50

## CCN(CC)CCCC(C)Nc1ccnc2cc(Cl)ccc12 (stereo not shown) [Chloroquine, chloroquine]
24 h, isolate 1107, 1 day in transit
  IC50: 160 nM
24 h, isolate 1236, 1 day in transit
  IC50: 22.2 nM
24 h, isolate A67, 1 day in transit
  IC50: 191 nM
24 h, isolate A107, 1 day in transit
  IC50: 818 nM
24 h, isolate A116, 1 day in transit
  IC50: 58.4 nM
24 h, isolate A246, 1 day in transit
  IC50: 20 nM
24 h, isolate A296, 1 day in transit
  IC50: 115 nM
24 h, isolate B236, 1 day in transit
  IC50: 90.6 nM
24 h, isolate C67, 1 day in transit
  IC50: 143 nM
24 h, isolate C107, 1 day in transit
  IC50: 554 nM
24 h, isolate C166, 1 day in transit
  IC50: 30.8 nM
24 h, isolate D86, 1 day in transit
  IC50: 33.2 nM
24 h, isolate D107, 1 day in transit
  IC50: 502 nM
24 h, isolate E67, 1 day in transit
  IC50: 50 nM
24 h, isolate E107, 1 day in transit
  IC50: 554 nM
24 h, isolate F107, 1 day in transit
  IC50: 818 nM
24 h, isolate F166, 1 day in transit
  IC50: 29.8 nM
24 h, isolate F296, 1 day in transit
  IC50: 66.4 nM
24 h, isolate G17, 1 day in transit
  IC50: 52 nM
24 h, isolate G236, 1 day in transit
  IC50: 330 nM
24 h, isolate H107, 1 day in transit
  IC50: 180 nM
24 h, isolate J107, 1 day in transit
  IC50: 294 nM
24 h, isolate K107, 1 day in transit
  IC50: 300 nM
24 h, isolate KilH, 1 day in transit
  IC50: 248 nM
24 h, isolate KilS, 1 day in transit
  IC50: 122 nM
24 h, isolate L107, 1 day in transit
  IC50: 224 nM
24 h, isolate L137, 1 day in transit
  IC50: 320 nM
48 h, isolate B106, 2 days in transit
  IC50: 294 nM
48 h, isolate B116, 2 days in transit
  IC50: 35.2 nM
48 h, isolate B296, 2 days in transit
  IC50: 664 nM
48 h, isolate C108, 2 days in transit
  IC50: 256 nM
48 h, isolate G296, 2 days in transit
  IC50: 400 nM
48 h, isolate H236, 2 days in transit
  IC50: 91.4 nM
48 h, isolate R107, 2 days in transit
  IC50: 78.8 nM

## CCN(CC)Cc1cc(Nc2ccnc3cc(Cl)ccc23)ccc1O [Amodiaquine, amodiaquine]
[1]
  IC50: 6.6 nM
[2]
  IC50: 26.8 nM
24 h, isolate A67, 1 day in transit, read-out: IC50
  IC50: 37.6 nM
24 h, isolate A107, 1 day in transit, read-out: IC50
  IC50: 91.8 nM
[3]
  IC50: 70.2 nM
[4]
  IC50: 17 nM
[5]
  IC50: 152 nM
[6]
  IC50: 28.8 nM
[7]
  IC50: 117 nM
[8]
  IC50: 179 nM
[9]
  IC50: 68 nM
[10]
  IC50: 29.8 nM
[11]
  IC50: 178 nM
[12]
  IC50: 180 nM
[13]
  IC50: 152 nM
24 h, isolate F107, 1 day in transit, read-out: IC50
  IC50: 23.6 nM
[14]
  IC50: 91.6 nM
[15]
  IC50: 202 nM
[16]
  IC50: 40.8 nM
[17]
  IC50: 33.8 nM
[18]
  IC50: 100 nM
[19]
  IC50: 12.6 nM
[20]
  IC50: 35.4 nM
[21]
  IC50: 125 nM
[22]
  IC50: 128 nM
[23]
  IC50: 18.4 nM
[24]
  IC50: 150 nM
48 h, isolate B106, 2 days in transit, read-out: IC50
  IC50: 99.2 nM
[25]
  IC50: 145 nM
[26]
  IC50: 53.4 nM
[27]
  IC50: 86.2 nM
48 h, isolate D166, 2 days in transit, read-out: IC50
  IC50: 6.6 nM
[28]
  IC50: 179 nM
[29]
  IC50: 8.6 nM
[30]
  IC50: 79.8 nM

## C=C[C@H]1C[N@@]2CC[C@H]1C[C@H]2[C@H](O)c1ccnc2ccc(OC)cc12 [Quinine, quinine]
[1]
  IC50: 40 nM
[2]
  IC50: 0.04 nM
[3]
  IC50: 152 nM
[4]
  IC50: 16.3 nM
[5]
  IC50: 476 nM
[6]
  IC50: 183 nM
[7]
  IC50: 136 nM
[8]
  IC50: 96.4 nM
[9]
  IC50: 165 nM
[10]
  IC50: 175 nM
[11]
  IC50: 264 nM
[12]
  IC50: 999 nM
24 h, isolate E67, 1 day in transit, read-out: IC50
  IC50: 108 nM
[13]
  IC50: 230 nM
[14]
  IC50: 93.2 nM
[15]
  IC50: 99.2 nM
[16]
  IC50: 143 nM
[17]
  IC50: 304 nM
[18]
  IC50: 28 nM
[19]
  IC50: 55.4 nM
[20]
  IC50: 354 nM
[21]
  IC50: 378 nM
[22]
  IC50: 187 nM
[23]
  IC50: 58.8 nM
[24]
  IC50: 134 nM
[25]
  IC50: 136 nM
[26]
  IC50: 1.8 nM
[27]
  IC50: 160 nM
[28]
  IC50: 306 nM
[29]
  IC50: 208 nM
[30]
  IC50: 472 nM
